Assay [1] can be described thus: Inhibition of Trypanosoma cruzi glucose-6-phosphate dehydrogenase.
Assay [2] is described as follows: Inhibition of Leishmania major trypanothione reductase.
Assay [3] has as its system Leishmania. Description: Antileishmanial activity against Leishmania in visceral leishmaniasis patient assessed as cure incidents at 10 to 15 mg/kg, iv administered as single dose as lipid formulations relative to control. The assay is classed as functional.
Assay [4] can be described thus: Inhibition of Trypanosoma cruzi N-terminal His-tagged full-length glucose-6-phosphate dehydrogenase expressed in Escherichia coli BL21(DE3) using glucose-6-phosphate as substrate in presence of NADP+ by spectrophotometric method.
Assay [5] can be described thus: Inhibition of Trypanosoma cruzi SUMO-tagged glucose-6-phosphate dehydrogenase expressed in Escherichia coli BL21(DE3) using glucose-6-phosphate as substrate by diaphorase enzyme coupled fluorescence assay.
The test system of assay [6] is Leishmania. Description: Antileishmanial activity against Leishmania in mucocutaneous leishmaniasis patient assessed as cure incidents at 4 mg/kg relative to control. The assay is classed as functional.
Assay [7] can be described thus: Inhibition of Leishmania amazonensis squalene synthase.
Assay [8] is described as follows: Mixed-type inhibition of Trypanosoma cruzi epimastigotes hexokinase using D-glucose as substrate in presence of ATP by Lineweaver-Burk Plot analysis.
Assay [9] can be described thus: Inhibition of Trypanosoma cruzi hexokinase.
Assay [10] in a line: Inhibition of Trypanosoma cruzi strain CL Brener N-terminal His6-tagged glucokinase expressed in Escherichia coli using D-glucose as substrate in presence of ATP by colorimetric assay.
A further assay has as its system Trypanosoma cruzi. In words: Antitrypanosomal activity against Trypanosoma cruzi Tulahuen amastigotes expressing beta-galactosidase gene infected in mouse NIH/3T3 cells after 4 days. It is filed as functional, cell-based. The following applies: NIH3T3, 96 h.
A short description of assay [11]: Inhibition of Trypanosoma cruzi strain CL Brener N-terminal His6-tagged glucokinase expressed in Escherichia coli using D-glucose as substrate in presence of ATP by Lineweaver-Burk Plot analysis.

Each structure is given as a SMILES string.

On to `Cc1ccc(Nc2ncc3c(n2)CCCC3=O)cc1`, for which the IC50 in [1] is 0.48 µM. `O=C(CCl)N1c2ccccc2COc2ccc(Cl)cc21`: 7.2 µM corresponded to half-maximal inhibition in [2] (IC50).

The molecule `O=C(CCl)N1c2ccccc2Oc2ccc(Cl)cc21` yielded a concentration for half-maximal inhibition (IC50) in assay [2] of 7.6 µM. On to `C[C@@H]1[C@H](O)[C@@H](C)/C=C/C=C/C=C/C=C/C=C/C=C/C=C/[C@H](O[C@@H]2O[C@H](C)[C@@H](O)[C@H](N)[C@@H]2O)C[C@@H]2O[C@](O)(C[C@@H](O)C[C@@H](O)[C@H](O)CC[C@@H](O)C[C@@H](O)CC(=O)O[C@H]1C)C[C@H](O)[C@H]2C(=O)O` [AMPHOTERICIN B], for which the Activity in the assay with Leishmania [3] was found to be 93.3%. As for `C[C@]12CC[C@H](O)C[C@@H]1CC[C@@H]1[C@@H]2CC[C@]2(C)C(=O)CC[C@@H]12` [EPIANDROSTERONE], in assay [4], the IC50 was found to be 3 µM and the inhibition constant (Ki) turned out to be 3.2 µM.

`O=C(CCl)N1c2ccccc2Sc2ccccc21` registered a 50% inhibitory concentration (IC50) in assay [2] of 9.3 µM.

In assay [1], `CCCCCCCn1cnc2sc(C(N)=O)c(C)c2c1=O` showed an IC50 of 4.9 µM. As to `C[C@]12CC[C@H](O)CC1=CC[C@@H]1[C@@H]2CC[C@]2(C)C(=O)[C@H](Br)C[C@@H]12`, in [5], the IC50 came to 0.216 µM. In the case of `N=C(N)c1ccc(OCCCCCOc2ccc(C(=N)N)cc2)cc1` [PENTAMIDINE], in the assay on Leishmania [6], the Activity is 90 - 95%. In assay [7], `CO[C@H]1CN(c2ccc(C#C[C@@]3(O)CN4CCC3CC4)c(Cc3ccccc3)n2)C[C@H]1O` gave an IC50 of 6.7 µM and a Ki of 0.0052 µM.

With `O=P(O)(O)C(Nc1cccc(Br)c1)P(=O)(O)O`, in assay [8], the inhibition constant (Ki) came to 1.2 µM. In the case of `CCn1c2ccccc2c2cc(NC(P(=O)(O)O)P(=O)(O)O)ccc21`, in assay [9], the IC50 worked out at 6.4 µM and the inhibitory constant (Ki) is 2.8 µM. As to `O=C(N[C@@H]1[C@@H](O)[C@H](O)[C@@H](CO)O[C@@H]1O)c1ccccc1`, the IC50 in assay [10] came out at 16.1 µM; with Trypanosoma cruzi, 48.7 µM. The Ki in assay [11] was 32 µM.

As to `O=C(N[C@@H]1[C@@H](O)[C@H](O)[C@@H](CO)O[C@@H]1O)OCc1ccccc1`, the 50% inhibitory concentration (IC50) was 48.7 µM in [10] and 16.1 µM with Trypanosoma cruzi. The inhibition constant (Ki) in assay [11] turned out to be 0.71 µM. For `O=P(O)(O)C(O)(Cc1ccncc1)P(=O)(O)O`, the Ki in assay [8] was 4.3 µM. With `C[C@]12CC[C@H](O)C[C@@H]1CC[C@@H]1[C@@H]2CC[C@]2(C)C(=O)[C@H](Br)C[C@@H]12` [16.ALPHA.-BROMOEPIANDROSTERONE], the IC50 in assay [5] worked out at 0.086 µM. In assay [7], `COCCCOc1ccc(C#C[C@@]2(O)CN3CCC2CC3)c(Cc2ccccc2)n1` returned an IC50 of 0.9 µM and an inhibition constant Ki of 0.0012 µM.

The values above are taken from ChEMBL document CHEMBL4007407, “Carbonic anhydrases from Trypanosoma and Leishmania as anti-protozoan drug targets” (Bioorg Med Chem, 2017).
